Our source for the relative viability values is the supplement of paper PMC10307832.

Assay in all cases: relative viability (nuclei count vs DMSO), 5 days (fraction); higher = more cells survive
Compound in the test “CAP-232 + Foretinib”: C[C@H]([C@@H](C(=O)N)NC(=O)[C@@H]1CSSC[C@@H](C(=O)N[C@H](C(=O)N[C@@H](C(=O)N[C@H](C(=O)N1)CCCCN)CC2=CNC3=CC=CC=C32)CC4=CC=C(C=C4)O)NC(=O)[C@@H](CC5=CC=CC=C5)N)O [CAP-232] + COc1cc2c(Oc3ccc(NC(=O)C4(C(=O)Nc5ccc(F)cc5)CC4)cc3F)ccnc2cc1OCCCN1CCOCC1 [Foretinib] (partner 0.25 µM)
An outline of the steps:
(§1)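 The day after seeding in 1536-well plates, lung cancer cell lines were treated by pin tool with a single drug, or with a fixed anchor-drug dose together with five library-drug doses (not always all listed) in √10 steps. After 5 days, a combined fix-and-stain solution (final 0.05% Triton X-100, 1% formaldehyde, 1 ug/ml Hoechst) was added. Nuclei counted on 4× images gave relative viability as treated counts over vehicle counts, reported as the median of duplicate plates.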

Compound in the test “CAP-232 + Trametinib”: C[C@H]([C@@H](C(=O)N)NC(=O)[C@@H]1CSSC[C@@H](C(=O)N[C@H](C(=O)N[C@@H](C(=O)N[C@H](C(=O)N1)CCCCN)CC2=CNC3=CC=CC=C32)CC4=CC=C(C=C4)O)NC(=O)[C@@H](CC5=CC=CC=C5)N)O [CAP-232] + CC(=O)Nc1cccc(-n2c(=O)n(C3CC3)c(=O)c3c(Nc4ccc(I)cc4F)n(C)c(=O)c(C)c32)c1 [Trametinib] (partner 0.02 µM)
An outline of the steps: as §1

Compound in the test “CAP-232 + Navitoclax”: C[C@H]([C@@H](C(=O)N)NC(=O)[C@@H]1CSSC[C@@H](C(=O)N[C@H](C(=O)N[C@@H](C(=O)N[C@H](C(=O)N1)CCCCN)CC2=CNC3=CC=CC=C32)CC4=CC=C(C=C4)O)NC(=O)[C@@H](CC5=CC=CC=C5)N)O [CAP-232] + CC1(C)CCC(c2ccc(Cl)cc2)=C(CN2CCN(c3ccc(C(=O)NS(=O)(=O)c4ccc(N[C@H](CCN5CCOCC5)CSc5ccccc5)c(S(=O)(=O)C(F)(F)F)c4)cc3)CC2)C1 [Navitoclax] (partner 0.5 µM)
An outline of the steps: as §1

Compound in the test “CAP-232 + Lapatinib”: C[C@H]([C@@H](C(=O)N)NC(=O)[C@@H]1CSSC[C@@H](C(=O)N[C@H](C(=O)N[C@@H](C(=O)N[C@H](C(=O)N1)CCCCN)CC2=CNC3=CC=CC=C32)CC4=CC=C(C=C4)O)NC(=O)[C@@H](CC5=CC=CC=C5)N)O [CAP-232] + CS(=O)(=O)CCNCc1ccc(-c2ccc3ncnc(Nc4ccc(OCc5cccc(F)c5)c(Cl)c4)c3c2)o1 [Lapatinib] (partner 2 µM)
An outline of the steps:
as §1

Compound in the test “CAP-232 + Dasatinib”: C[C@H]([C@@H](C(=O)N)NC(=O)[C@@H]1CSSC[C@@H](C(=O)N[C@H](C(=O)N[C@@H](C(=O)N[C@H](C(=O)N1)CCCCN)CC2=CNC3=CC=CC=C32)CC4=CC=C(C=C4)O)NC(=O)[C@@H](CC5=CC=CC=C5)N)O [CAP-232] + Cc1nc(Nc2ncc(C(=O)Nc3c(C)cccc3Cl)s2)cc(N2CCN(CCO)CC2)n1 [Dasatinib] (partner 0.075 µM)
An outline of the steps: as §1

Turning to NCI-H322M, the relative viability in the test with CAP-232 + Foretinib (first compound 0.4 µM) came to 1.05; in the test with CAP-232 + Foretinib (first compound 1.265 µM) it was 0.962; in the test with CAP-232 + Foretinib (first compound 4 µM) it was 0.952; with CAP-232 + Foretinib (first compound 12.65 µM), 0.985; in the test with CAP-232 + Trametinib (first compound 0.4 µM) it was 0.46; with CAP-232 + Trametinib (first compound 1.265 µM), 0.514. The relative viability with CAP-232 + Trametinib (first compound 4 µM) was 0.497; with CAP-232 + Trametinib (first compound 12.65 µM), 0.539; in the test with CAP-232 + Navitoclax (first compound 0.4 µM), 1.32; in the test with CAP-232 + Navitoclax (first compound 1.265 µM) it was 1.26; with CAP-232 + Navitoclax (first compound 4 µM), 1.36; with CAP-232 + Navitoclax (first compound 12.65 µM), 1.13. Further, the relative viability with CAP-232 + Lapatinib (first compound 0.4 µM) came out at 0.558; with CAP-232 + Lapatinib (first compound 1.265 µM), 0.492; with CAP-232 + Lapatinib (first compound 4 µM), 0.69; with CAP-232 + Lapatinib (first compound 12.65 µM), 0.589; with CAP-232 + Dasatinib (first compound 0.4 µM) it was 0.275; with CAP-232 + Dasatinib (first compound 1.265 µM) it was 0.237. Further, the relative viability with CAP-232 + Dasatinib (first compound 4 µM) stood at 0.256; in the test with CAP-232 + Dasatinib (first compound 12.65 µM), 0.34.
As for NCI-H460, the relative viability is 1.02 in the test with CAP-232 + Foretinib (first compound 0.4 µM); 1.1 in the test with CAP-232 + Foretinib (first compound 1.265 µM); 1.22 in the test with CAP-232 + Foretinib (first compound 4 µM); 0.622 in the test with CAP-232 + Foretinib (first compound 12.65 µM); 0.134 in the test with CAP-232 + Trametinib (first compound 0.4 µM); 0.208 with CAP-232 + Trametinib (first compound 1.265 µM). Also, the relative viability in the test with CAP-232 + Trametinib (first compound 4 µM) is 0.165; in the test with CAP-232 + Trametinib (first compound 12.65 µM) it was 0.0175; in the test with CAP-232 + Navitoclax (first compound 0.4 µM), 1.02; with CAP-232 + Navitoclax (first compound 1.265 µM) it was 1.36; in the test with CAP-232 + Navitoclax (first compound 4 µM), 1.11; with CAP-232 + Navitoclax (first compound 12.65 µM) it was 0.542. The relative viability in the test with CAP-232 + Lapatinib (first compound 0.4 µM) is 1.11; in the test with CAP-232 + Lapatinib (first compound 1.265 µM), 1.02; with CAP-232 + Lapatinib (first compound 4 µM), 1.62; in the test with CAP-232 + Lapatinib (first compound 12.65 µM), 0.773; in the test with CAP-232 + Dasatinib (first compound 0.4 µM) it was 0.704; with CAP-232 + Dasatinib (first compound 1.265 µM), 0.478. For the same cell line, the relative viability in the test with CAP-232 + Dasatinib (first compound 4 µM) turned out to be 0.581; with CAP-232 + Dasatinib (first compound 12.65 µM), 0.419.
Consider NCI-H520, for which the relative viability with CAP-232 + Foretinib (first compound 0.4 µM) amounted to 0.734; with CAP-232 + Foretinib (first compound 1.265 µM) it was 0.98; with CAP-232 + Foretinib (first compound 4 µM), 0.92; with CAP-232 + Foretinib (first compound 12.65 µM) it was 0.47; in the test with CAP-232 + Trametinib (first compound 0.4 µM), 0.559; with CAP-232 + Trametinib (first compound 1.265 µM), 0.637. In addition, the relative viability with CAP-232 + Trametinib (first compound 4 µM) was determined as 0.799; with CAP-232 + Trametinib (first compound 12.65 µM) it was 0.521; in the test with CAP-232 + Navitoclax (first compound 0.4 µM), 1.03; in the test with CAP-232 + Navitoclax (first compound 1.265 µM), 0.997; with CAP-232 + Navitoclax (first compound 4 µM), 1.13; with CAP-232 + Navitoclax (first compound 12.65 µM) it was 0.582. For the same cell line, the relative viability with CAP-232 + Lapatinib (first compound 0.4 µM) came to 0.961; with CAP-232 + Lapatinib (first compound 1.265 µM), 0.858; with CAP-232 + Lapatinib (first compound 4 µM) it was 0.965; with CAP-232 + Lapatinib (first compound 12.65 µM), 0.684; in the test with CAP-232 + Dasatinib (first compound 0.4 µM), 0.189; with CAP-232 + Dasatinib (first compound 1.265 µM), 0.193. The relative viability was 0.251 with CAP-232 + Dasatinib (first compound 4 µM) and 0.201 in the test with CAP-232 + Dasatinib (first compound 12.65 µM).
